# Literature values, collected in US20230150977A1, “PYRIDAZINONE COMPOUNDS FOR THE TREATMENT OF NEUROMUSCULAR DISEASES” (Edgewise Therapeutics, Inc., priority 2020, published 2023).
# Test system: embryos from zebrafish model of DMD
# Conditions: Li and Arner, PLoSONE, 2015; cited from earlier work
smiles,measurement,value
"Cc1ccc(S(=O)(=O)NCc2ccccc2)cc1 [BTS, N-benzyl-p-tolyl-sulfonamide]",protection of muscles from pathological muscle derangement,protect muscles from pathological muscle derangement
